The solubility is the dissolved amount per volume that the medium holds. As a reminder, the pKa is the negative logarithm of the acid dissociation constant. The term log P denotes the decadic logarithm of the partition coefficient of the neutral form, usually between octanol and water.

In brackets after ≈: the same amount, converted by molar mass. Like-named read-outs stand apart in the source and are kept apart here.

Results on seven molecules are retold here after PMC11487632 (Molecular Pharmaceutics, 2024).

For series [1] the following is noted: cited from earlier work.
Series [2] can be described thus: Pre-dissolution procedure: apparent solubility of pure APIs in buffer with predissolved XAT derivatives (HPLC, Noyes-Whitney fit). Format: physicochemical. To be noted: for effect of predissolved TPH on API solubility: 5-20 mM TPH in 100 mM phosphate buffer pH 6.8; for effect of predissolved CFN on API solubility: 10-50 mM CFN in 100 mM phosphate buffer pH 6.8; for saturated concentration (curve fitting eq 1) / solubility: 100 mM phosphate buffer pH 6.8, 298 K; for solubility: phosphate buffer, 25 °C, pH 6.8, aqueous buffer, thermodynamic from solid, read-out: solubility (eq 1). The protocol:
The sample solution was filtered with a membrane filter (Minisart RC 4 with 0.22 μm pore size; Sartorius, Göttingen, Germany). The fractionation of the API or XAT derivative in the filtrate was performed via HPLC (Shimadzu Co., Kyoto, Japan) using a mobile phase of 25 mM citric acid buffer (pH 3.0):methanol of 3:7 at a flow rate of 1 mL/min.
To assess the apparent solubility of pure APIs in solutions of XAT derivatives, “pre-dissolution procedures” were conducted. […] The API samples, adjusted to exceed saturation, were added to 5 mL of the dissolving medium and shaken in a water bath at 298 K for a specific duration. The concentration of API in the supernatant was measured using HPLC. The solubility concentrations of all APIs were determined from each API’s standard curves. The R-square values of all standard curves are over 0.995.
The dissolution process of the pure APIs or API mixtures assumably corresponded to a linear correlation or a saturation curve. The API samples were homogenized using an agate mortar and pestle to align the particle sizes without sieving, considering the potential contamination of superfine powders. The immediate dissolution of the adhering powders in the solution at t = 0 was assumed; additionally, their concentrations were treated as the initial concentration (C = C0) if a sink condition was applicable owing to the higher solubility of the API.
For curves resembling a saturation curve, nonlinear curve fitting using the Noyes–Whitney integral expression (eq 1) was applied:[48],[49] [drawing 1] 1 where Ceq is the apparent solubility of the API, k is the dissolution rate constant, and S is the surface area of the sample particles. […] Curve-fitting procedures employed the Solver module of Microsoft Excel 2016 with the implemented GRG nonlinear option. The recrystallized precipitates were verified by X-ray powder diffraction (XRPD) and differential scanning calorimetry (DSC); no cocrystals or other generated solids were observed.

Series [3] in a line: Co-dissolution procedure: apparent solubility of API mixtures with CFN, TPH, TBR or XAT (HPLC, Noyes-Whitney fit). The series is classed as physicochemical. Conditions: for effect of codissolved CFN on API solubility / saturated concentration / effect of codissolved TBR on API dissolution curve / saturated concentration / effect of codissolved TPH on API solubility / saturated concentration / effect of codissolved XAT on API dissolution curve / saturated concentration: equimolar mixture; for increase of XAT-derivative solubility by IBP and DCF (NSAIDs): equimolar IBP or DCF mixtures.

The conditions of series [4]: cited from earlier work. This is another data set of the same source.
On the set-up of series [5]: method as in previous study. Conditions: ref previous study, cited from earlier work; for solubility during the predissolution procedure: presence or absence of cimetidine (CIM) in solution insignificant; for solubility during the codissolution procedure: simultaneous addition of CIM crystal powder.
The conditions of series [6]: ref 18 (not printed for TBR and XAT); cited from earlier work.
For series [7] the following is noted: ref 18 (given for CFN and TPH only); cited from earlier work.
The conditions of series [8]: ref 18 (given for CFN and TPH only); cited from earlier work. The source holds these as a separate data set.

For the molecule `CC(C)Cc1ccc([C@H](C)C(=O)O)cc1` [IBP, (S)-(+)-ibuprofen], in series [1] (25 mM phosphate buffer (pH 6.88)), the solubility is around 20000 µM (≈ 4130 µg/mL). The solubility entry in series [1] (100 mM phosphate buffer (pH 7.18)) was “approximately 40 mM”. Besides, the “change of solubility in mixtures with lidocaine (LDC)” value in series [1] (mixtures with LDC, without pH fluctuations) is given as “reduced”. In series [2], the “effect of predissolved TPH on API solubility” value is on record as “did not influence” and the “effect of predissolved CFN on API solubility” value is on record as “did not influence”. Further, the “saturated concentration (curve fitting eq 1)” value in series [2] (predissolved CFN series, irrespective of CFN) stood at 17.22 ± 0.61 mM. Moreover, the “saturated concentration (curve fitting eq 1)” value in series [2] (predissolved TPH series, irrespective of TPH) was 17.34 ± 0.86 mM. Besides, in series [3] (100 mM phosphate buffer pH 6.8), the “effect of codissolved CFN on API solubility / saturated concentration” value is “decreased”, the “effect of codissolved TBR on API dissolution curve / saturated concentration” value is “did not significantly affect”, the “effect of codissolved TPH on API solubility / saturated concentration” value was “decreased” and the “effect of codissolved XAT on API dissolution curve / saturated concentration” value is on record as “did not significantly affect”.
For `Cn1c(=O)c2c(ncn2C)n(C)c1=O` [CFN, caffeine], the “distribution volume Vd” value in series [4] (CFN) is listed as 0.7 L/kg.
With `O=C(O)Cc1ccccc1Nc1c(Cl)cccc1Cl` [DCF, diclofenac], in series [1] (50 mM MES buffer (pH 5.5)), the solubility is around 100 µM (≈ 29.6 µg/mL). Also, the solubility result in series [1] (100 mM phosphate buffer (pH 6.45)) is “approximately 0.7 mM”. The “change of solubility on addition of 10 mM LDC to the dissolution buffer” value in series [1] (within the buffering capacity range) was “increased”. Moreover, in series [5] (equilibrated solution, FAM delayed dissolution), the “effect of famotidine (FAM) on final solubility” value was “not affected”. For the same molecule, in series [5], the “solubility during the predissolution procedure” value is 829 µM (≈ 246 µg/mL) and the “solubility during the codissolution procedure” value was 3390 µM (≈ 1000 µg/mL). In series [2], the “effect of predissolved TPH on API solubility” value is “enhanced” and the “effect of predissolved CFN on API solubility” value is given as “enhanced”. For the same molecule, in series [2] (in the absence of CFN (CFN series)), the solubility is 1760 ± 44 µM (≈ 521 µg/mL). For the same molecule, the solubility in series [2] (in the absence of TPH (TPH series)) came out at 1690 ± 53 µM (≈ 499 µg/mL). Moreover, in series [3] (100 mM phosphate buffer pH 6.8), the “effect of codissolved CFN on API solubility / saturated concentration” value is reported as “increased”, the “effect of codissolved TBR on API dissolution curve / saturated concentration” value is given as “did not significantly differ”, the “effect of codissolved TPH on API solubility / saturated concentration” value was “increased” and the “effect of codissolved XAT on API dissolution curve / saturated concentration” value is reported as “did not significantly differ”.
With `Cn1cnc2c1c(=O)[nH]c(=O)n2C` [TBR, theobromine], in series [6], the pKa is 10.05. Further, in series [7], the water solubility was 2000 µM (≈ 360 µg/mL). The solubility in series [3] (25 °C, aqueous buffer, thermodynamic from solid, pure, 100 mM phosphate buffer pH 6.8, read-out: solubility of the pure XAT derivative) is 1000 µM (≈ 180 µg/mL). The “increase of XAT-derivative solubility by IBP and DCF (NSAIDs)” value in series [3] came to 3 fold. In addition, the “log P” value in series [8] is given as −0.78.
As to `COc1ccc2c(c1)c(CC(=O)O)c(C)n2C(=O)c1ccc(Cl)cc1` [INM, indomethacin], in series [5], the “solubility during the predissolution procedure” value is 625 µM (≈ 224 µg/mL) and the “solubility during the codissolution procedure” value is 3340 µM (≈ 1200 µg/mL). In series [2] (data not published), the “effect of CFN added to the dissolving medium on solubility” value was “enhanced”.
With `Cn1c(=O)c2[nH]cnc2n(C)c1=O` [TPH, theophylline], in series [4] (TPH, no reference given), the “distribution volume Vd” value was 0.5 L/kg. The “therapeutic range in the blood” value in series [4] (narrow therapeutic range) was 0.06 to 0.11 mmol/L. Further, the water solubility in series [7] is 40000 µM (≈ 7210 µg/mL). For the same molecule, the “effect of IBP on saturation concentration of the XAT derivative” value in series [3] (equimolar mixtures with IBP, effect of DCF greater than that of IBP) was “increased”. For the same molecule, in series [8], the “log P” value is 0.00.
Take `O=c1[nH]c(=O)c2[nH]cnc2[nH]1` [XAT, xanthine]: in series [3], the “increase of XAT-derivative solubility by IBP and DCF (NSAIDs)” value was found to be 2 fold.
